The record followed here is PubChem BioAssay (NCI).

Common to all, as to assay: NCI tumour cell line growth inhibition, 48 h
Experiment [1] concerns NCI-H226 lung.
Experiment [2] has as its system UACC-257 melanoma.
Experiment [3] relates to U251 CNS.
Experiment [4] has as its system SN12C renal.
Experiment [5] deals with HL-60(TB) leukemia.
In experiment [6] the test system is LOX IMVI melanoma.
Experiment [7] deals with MALME-3M melanoma.
For experiment [8], the system named is IGROV1 ovarian.
Experiment [9] relates to SF-539 CNS.
Experiment [10] deals with SF-268 CNS.
Experiment [11] has as its system HT29 colon.

Structures are written as SMILES.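 A five-concentration, 48-hour dose response in 96-well plates underlies each endpoint, interpolated linearly between surrounding concentrations. At the TGI there is no net growth.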

Consider `O=c1[nH]nc(-c2ccccc2)n1/N=C/c1ccc([N+](=O)[O-])o1`, for which the TGI in experiment [1] is 37.5 µM; in experiment [2], 11.9 µM; in experiment [3], 18.3 µM; in experiment [4], 13.5 µM; in experiment [5], greater than 44.4 µM; in experiment [6] it was greater than 100 µM. For the same compound, the TGI in experiment [7] is 9.38 µM; in [8] it was 16.9 µM; in [9] it was 15.7 µM; in [10] it was greater than 28 µM; in experiment [11], greater than 48.7 µM.
Regarding `Cc1ccc(S(=O)(=O)N2C[C@@H]3CC[C@]4(CO[Si](C)(C)C(C)(C)C)N[C@@H](c5ccccc5)[C@H]2[C@H]34)cc1`, the TGI in experiment [1] is 57.1 µM; in experiment [2] it was 93.8 µM; in experiment [3], greater than 100 µM; in [4], 76.2 µM; in experiment [5], greater than 100 µM; in [6], greater than 100 µM. Further, the TGI in experiment [7] is 46.3 µM; in experiment [8], greater than 100 µM; in experiment [9], greater than 100 µM; in [10], greater than 100 µM; in experiment [11] it was 42.6 µM.
Take `C1=C(c2ccccc2)C(N2CCOCC2)Oc2ccccc21` (configuration not stated): the TGI in experiment [1], in experiment [2], in experiment [3], in experiment [4], in experiment [5] and in experiment [6] was greater than 100 µM each time. Further, the TGI in [7], in experiment [8], in experiment [9], in experiment [10] and in experiment [11] was greater than 100 µM throughout.
Consider `CCn1c(=O)c2nc(SC)sc2n(-c2ccc(C)cc2)c1=O`, for which the TGI in experiment [1], in experiment [2], in experiment [3], in experiment [4], in experiment [5] and in experiment [6] was greater than 100 µM throughout. Besides, the TGI is greater than 81.7 µM in [7]; greater than 100 µM in [8]; greater than 100 µM in experiment [9]; greater than 100 µM in [10]; greater than 100 µM in experiment [11].
With `COC(=O)c1ccccc1C1CN=NC12Cc1c(ccc3c1CCC3)C2=O` (configuration not stated), the TGI is greater than 100 µM in [1]; 95.1 µM in [2]; greater than 100 µM in experiment [3]; greater than 100 µM in experiment [4]; 59.3 µM in [5]; 60.4 µM in experiment [6]. Also, the TGI in experiment [7], in experiment [8], in experiment [9], in experiment [10] and in experiment [11] was greater than 100 µM in each case.
Regarding `c1nc(NCCc2cnc[nH]2)c2[nH]cnc2n1`, the TGI in experiment [1], in [2], in experiment [3], in experiment [4], in experiment [5] and in experiment [6] was greater than 100 µM each time. In addition, the TGI in experiment [7], in experiment [8], in experiment [9], in experiment [10] and in experiment [11] was greater than 100 µM each time.
Consider `C=C(C(=O)O[C@H]1C/C(C)=C/CC/C(CO)=C/[C@H]2C(=O)OC(=C)[C@H]12)C(O)CO` (some centres not stated), for which the TGI in [1] worked out at 37.7 µM; in experiment [2], 24.1 µM; in [3], 27.1 µM; in experiment [4], 30.6 µM; in [5], 10.4 µM; in [6], 36 µM. Besides, the TGI came to 10.7 µM in experiment [7]; 39.5 µM in experiment [8]; 10.4 µM in [9]; 39.6 µM in experiment [10]; 38.7 µM in experiment [11].
As to `CCCCc1ccc(Nc2ncc3ncn(COCCO)c3n2)cc1`, the TGI is greater than 100 µM in [1]; 72.5 µM in experiment [2]; greater than 100 µM in [3]; greater than 100 µM in [4]; 50 µM in experiment [5]; 39.7 µM in [6]. Also, the TGI was 68.4 µM in experiment [7]; greater than 100 µM in experiment [8]; greater than 100 µM in experiment [9]; greater than 100 µM in experiment [10]; 50 µM in experiment [11].
With `CSC(=S)Nc1cc(C)cc(C)n1`, the TGI in experiment [1], in [2], in [3], in [4], in [5] and in experiment [6] was greater than 31.6 µM each time. Also, the TGI is greater than 31.6 µM in experiment [7]; greater than 100 µM in experiment [8]; greater than 100 µM in [9]; greater than 31.6 µM in [10]; greater than 31.6 µM in experiment [11].
In the case of `COc1cc2ccc(C(=O)NCCCNC(=O)c3ccc4cc(OC)c(OC)cc4c3)cc2cc1OC`, the TGI in experiment [1], in experiment [2], in experiment [3], in experiment [4], in experiment [5] and in experiment [6] was greater than 100 µM each time. Moreover, the TGI in [7], in experiment [8], in experiment [9], in [10] and in [11] was greater than 100 µM in each case.
With `CC[C@@]1(O)C(=O)OCc2c1cc1n(c2=O)Cc2c-1nc1ccc(O)cc1c2[Si](C)(C)C(C)(C)C`, the TGI in experiment [1] was 0.015 µM; in experiment [2] it was 0.681 µM; in [3], 0.0192 µM; in experiment [4], less than 0.0233 µM; in [5] it was less than 0.01 µM; in experiment [6] it was 0.163 µM. Besides, the TGI is 0.179 µM in experiment [7]; 7.41 µM in experiment [8]; less than 0.01 µM in experiment [9]; 0.804 µM in experiment [10]; 4.39 µM in experiment [11].
On to `O[C@@H]1C=C[C@]23CCN(Cc4cc5c(cc42)OCO5)[C@@H]3C1`, for which the TGI in experiment [1], in experiment [2], in experiment [3], in experiment [4], in [5] and in [6] was greater than 100 µM throughout. The TGI in experiment [7], in [8], in [9], in [10] and in [11] was greater than 100 µM throughout.
